Measured values: US7098211B2, “Compounds having simultaneous ability to block L-type calcium channels and to inhibit phosphodiesterase type 3 activity” (Artesian Therapeutics, Inc., priority 2002, dated 2006)
Values joined by “and” are separate entries in the source; they are usually repeats but may differ in a detail not shown here. Equal values may be shown once. Blank lines part the entries; values can stand above or below the molecule they belong to.

How the values were obtained:
[1] = target: T1, Human platelet cyclic AMP phosphodiesterase (PDE-3) (Homo sapiens, UniProt Q14432); test: cAMP PDE-3 inhibitory activity assay; assay type: biochemical; conditions: 10 minutes at 30° C., n=3 per concentration
T1 construct: Human platelet cyclic AMP phosphodiesterase was prepared; from tissue; host or cells: human platelets
T1 sequence (Q14432 whole entry): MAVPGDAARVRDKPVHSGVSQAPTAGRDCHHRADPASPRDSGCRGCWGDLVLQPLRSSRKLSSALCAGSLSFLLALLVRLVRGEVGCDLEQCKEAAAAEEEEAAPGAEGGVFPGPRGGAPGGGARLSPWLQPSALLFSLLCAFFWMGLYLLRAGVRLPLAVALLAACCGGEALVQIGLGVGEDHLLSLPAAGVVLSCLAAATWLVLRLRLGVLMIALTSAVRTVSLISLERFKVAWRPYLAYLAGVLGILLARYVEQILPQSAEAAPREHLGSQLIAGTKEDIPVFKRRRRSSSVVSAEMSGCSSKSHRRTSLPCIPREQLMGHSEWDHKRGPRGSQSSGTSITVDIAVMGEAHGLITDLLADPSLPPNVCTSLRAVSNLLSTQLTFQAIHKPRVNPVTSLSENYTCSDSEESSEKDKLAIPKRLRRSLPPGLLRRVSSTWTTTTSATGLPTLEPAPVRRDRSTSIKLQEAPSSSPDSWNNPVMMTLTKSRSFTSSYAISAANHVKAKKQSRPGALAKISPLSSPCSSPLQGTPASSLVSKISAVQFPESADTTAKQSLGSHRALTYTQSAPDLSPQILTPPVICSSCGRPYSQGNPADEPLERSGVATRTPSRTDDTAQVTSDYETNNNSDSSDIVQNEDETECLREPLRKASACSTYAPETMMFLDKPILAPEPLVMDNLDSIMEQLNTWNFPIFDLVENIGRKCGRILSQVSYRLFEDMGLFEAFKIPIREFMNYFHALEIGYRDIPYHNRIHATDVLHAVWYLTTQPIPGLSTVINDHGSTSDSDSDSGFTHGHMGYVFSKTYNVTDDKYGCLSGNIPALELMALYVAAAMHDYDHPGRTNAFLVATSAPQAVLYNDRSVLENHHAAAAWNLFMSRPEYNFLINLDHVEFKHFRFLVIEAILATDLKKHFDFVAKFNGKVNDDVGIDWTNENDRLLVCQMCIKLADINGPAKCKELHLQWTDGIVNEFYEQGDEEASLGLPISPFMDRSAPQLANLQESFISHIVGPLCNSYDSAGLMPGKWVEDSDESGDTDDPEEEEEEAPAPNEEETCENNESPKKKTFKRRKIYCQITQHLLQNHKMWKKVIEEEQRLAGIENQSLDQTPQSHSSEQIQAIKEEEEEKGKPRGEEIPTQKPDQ
Procedure: Human platelet cyclic AMP phosphodiesterase was prepared according to the method of Alvarez et al. (Mol. Pharmacol. 1986, 29, 554). The PDE incubation medium contained 10 mM Tris-HCl buffer, pH 7.7, 10 mM MgSO4, and 1 μM […] (0.2 μCi) in a total volume of 1.0 mL. Test compounds were dissolved in dimethyl sulfoxide (DMSO) immediately prior to addition to the incubation medium, and the resulting mixture was allowed to stand for 10 minutes prior to the addition of enzyme. Following the addition of PDE, the contents were mixed and incubated for 10 minutes at 30° C. Three assays each were performed for each of five test compound concentrations, the mean of the determinations (n=3) at each concentration was plotted, and IC50 values were determined graphically.

[2] = tested on: paced dog model of congestive heart failure; test: Paced dog model of congestive heart failure; assay type: in vivo; conditions: for ventricular tachycardia: all tested dosages
Procedure: Compound 8 was evaluated in a paced dog model of congestive heart failure. Pacing-induced heart failure in the dog produces alterations in heart physiology and molecular signaling similar to what is seen in the failing human heart, making this an appropriate model to test compounds that can potentially improve calcium homeostasis and heart failure physiology. Heart failure was induced by increasing the heart rate to 220–240 beats per minute (bpm) for a six week period. The degree of heart failure was documented by both pressure measurements and echocardiogram (changes in contractility, ejection fraction, ventricular relaxation, fractional area shortening, isovolumic relaxation time). Compound 8 or the milrinone were administered following the induction of heart failure.

[3] = tested on: guinea pig papillary muscle; test: Contraction-relaxation in guinea pig papillary muscle; assay type: cell-based; conditions: FIG. 1
Procedure: Male guinea pigs (400–500 g) were killed by cervical dislocation and the hearts were quickly removed, immersed in ice-cold, and oxygenated in Kreb's solution containing 113.1 mM NaCl, 4.6 mM KCl, 2.45 mM CaCl2, 1.2 mM MgCl2, […], and 10.0 mM glucose; pH 7.4 with 95% O2–5% CO2. The ventricles were opened and papillary muscles were removed with chordae tandineae and a base of surrounding tissue intact. The tendinous ends of the muscles were ligated with silk thread, and the muscles were mounted in vertical, double-jacketed organ baths containing 10 mL of oxygenated Kreb's solution kept at 37° C. […]
Following a 45-minute equilibration period under a 1 gram tension, control contractions were elicited by stimulating the muscle using stainless steel field electrodes at a frequency of 1.0 Hz, 2.0 ms duration. […] Control contraction-relaxation cycles were recorded for 30 seconds continuously. […] A series of washout contractions was recorded following a change of solution. When the amplitude of contraction returned to that measured in control conditions, a single concentration of positive control was then tested on the tissue in the same manner as Compound 5 and milrinone.
Contraction amplitude as well as the time courses of contraction and relaxation were quantified. […]

IC50 [1]: 270 nM
Compound: COC(=O)C1=C(C)NC(COCCNC(=O)CCCOc2ccc3[nH]c(=O)ccc3c2)=C(C(=O)OC)C1c1ccccc1Cl (stereo not drawn) [Compound 10, methyl 4-(2-chlorophenyl)-5-(methoxycarbonyl)-2-methyl-6-({2-[4-(2-oxo(6-hydroquinolyloxy))butanoylamino]ethoxy}methyl)-1,4-dihydropyridine-3-carboxylate]

IC50 [1]: 100 nM
Compound: CCOC(=O)C1=C(COCCNC(=O)COc2ccc3[nH]c(=O)ccc3c2)NC(C)=C(C(=O)OC)C1c1ccccc1Cl (stereo not drawn) [Compound 11, methyl 4-(2-chlorophenyl)-5-(ethoxycarbonyl)-2-methyl-6-({2-[2-(2-oxo(6-hydroquinolyloxy))acetylamino]ethoxy}methyl)-1,4-dihydropyridine-3-carboxylate]

ventricular tachycardia ([2]; dogs in heart failure): demonstrated ventricular tachycardia
Compound: Cc1[nH]c(=O)c(C#N)cc1-c1ccncc1 [milrinone, reference compound]

IC50 [1]: 240 nM
Compound: COC(=O)C1=C(C)NC(COCCNC(=O)COc2ccc3[nH]c(=O)ccc3c2)=C(C(=O)OC)C1c1ccccc1Cl (stereo not drawn) [Compound 12, methyl 4-(2-chlorophenyl)-5-(methoxycarbonyl)-2-methyl-6-({2-[2-(2-oxo(6-hydroquinolyloxy))acetylamino]ethoxy}methyl)-1,4-dihydropyridine-3-carboxylate]

IC50 [1]: 80 nM | ventricular tachycardia ([2]; dogs in heart failure): no ventricular tachycardia
Compound: COC(=O)C1=C(C)NC(COCCNC(=O)COc2ccc(C3=NNC(=O)CC3)cc2Cl)=C(C(=O)OC)C1c1ccccc1Cl (stereo not drawn) [Compound 8, methyl 6-[(2-{2-[2-chloro-4-(6-oxo(1,4,5-trihydropyridazin-3-yl))phenoxy]acetylamino}ethoxy)methyl]-4-(2-chlorophenyl)-5-(methoxycarbonyl)-2-methyl-1,4-dihydropyridine-3-carboxylate]
contractility (dp/dt max) and ejection fraction, maximal increase relative to that produced by milrinone ([2]; % of that produced by milrinone, FIG. 2): 53–61% | ventricular relaxation (dp/dt min, Tau and isovolumic relaxation time), maximal increase relative to that produced by milrinone ([2]; % of that produced by milrinone, FIG. 3): 63–88% | contractility (dp/dt max) and ejection fraction ([2]; dogs in heart failure, FIG. 2): dose-dependent response | ventricular relaxation (dp/dt min, Tau and isovolumic relaxation time) ([2]; dogs in heart failure, FIG. 3): increased ventricular relaxation in a dose-dependent manner | in vivo inhibition of PDE-3 and calcium channel antagonism ([2]; systemic administration, dogs in heart failure): demonstrated in vivo inhibition of PDE-3 and calcium channel antagonism | QT prolongation ([2]; under acute conditions): no apparent QT prolongation

IC50 [1]: 270 nM and 110 nM
Compound: COC(=O)C1=C(C)NC(COCCNC(=O)CCCOc2ccc3[nH]c(=O)ccc3c2)=C(C(=O)OC)C1c1ccccc1[N+](=O)[O-] (stereo not drawn) [Compound 6, methyl 5-(methoxycarbonyl)-2-methyl-4-(2-nitrophenyl)-6-({2-[4-(2-oxo(6-hydroquinolyloxy))butanoylamino]ethoxy}methyl)-1,4-dihydropyridine-3-carboxylate]

IC50 [1]: 340 nM and 420 nM
Compound: COC(=O)C1=C(C)NC(COCCCOc2ccc3[nH]c(=O)ccc3c2)=C(C(=O)OC)C1c1ccccc1Cl (stereo not drawn) [Compound 7, methyl 4-(2-chlorophenyl)-5-(methoxycarbonyl)-2-methyl-6-{[3-(2-oxo(6-hydroquinolyloxy))propoxy]methyl}-1,4-dihydropyridine-3-carboxylate]

Compound: CCOC(=O)C1=C(COCCNC(=O)CCCOc2ccc3[nH]c(=O)ccc3c2)NC(C)=C(C(=O)OC)C1c1ccccc1Cl (stereo not drawn) [Compound 5, methyl 4-(2-chlorophenyl)-5-(ethoxycarbonyl)-2-methyl-6-({2-[4-(2-oxo(6-hydroquinolyloxy))butanoylamino]ethoxy}methyl)-1,4-dihydropyridine-3-carboxylate]
IC50 [1]: 300 nM | inotropic effect (muscle contractility) ([3]; cumulative concentrations, stimulated at 1.0 Hz): positive inotropic effect (increase in muscle contractility) in a dose-dependent manner | maximum increase in contractility compared with milrinone ([3]; guinea pig papillary muscle): less than the maximum increase produced by milrinone

IC50 [1]: 48 nM
Compound: CCOC(=O)C1=C(COCCNC(=O)COc2ccc(C3=NNC(=O)CC3)cc2Cl)NC(C)=C(C(=O)OC)C1c1ccccc1Cl (stereo not drawn) [Compound 9, methyl 6-[(2-{2-[2-chloro-4-(6-oxo(1,4,5-trihydropyridazin-3-yl))phenoxy]acetylamino}ethoxy)methyl]-4-(2-chlorophenyl)-5-(ethoxycarbonyl)-2-methyl-1,4-dihydropyridine-3-carboxylate]
